Assay results published in patent US5026694A, “Platinum complexes with one radiosensitizing ligand” (priority 1989, dated 1991).
Like-named read-outs stand apart in the source and are kept apart here.

Columns and labels:
[1] = system: Chinese hamster ovary (CHO) cells; assay: Toxicity in hypoxic and aerated CHO cells (plating efficiency/survival); type: cell-based; design: plating efficiency / effect on plating efficiency: dose or concentration left out as unconfirmed; conditions: for order of toxicity of free ligand: free ligands; for toxicity compared with the compounds of the invention: 100 mM/dm^3 experiments; for approximate order of hypoxic toxicity of platinum complexes: hypoxia
Description: The toxicity of the invention compounds with respect to Chinese hamster ovary (CHO) cells was compared in air and in nitrogen induced hypoxia as described by Moore, B. A., et al, Radiation Research (1976) 67:459-478. The radiosensitizing ligands, or cis or transdichlorodiamine platinum II (DDP) or the . bisubstituted platinum complexes, PtCl2 (L)2, were used as controls.
The cells were carried in MEM a medium with 10% fetal calf serum, and plating efficiencies were determined on the seventh day after plating.
In similar experiments at 100 mM/dm^3, MISO and trans-[PtCl2 (miso)2 ] show no toxicity. Survival rates for trans-DDP and monoammine were 0.2 and 0.1 respectively.
Using 100 mM levels, mono-6NQ caused plating efficiency to drop to 0 after an hour, while 6NQ had no effect after 3 hours.

[2] = system: CHO cells; assay: Radiosensitization of CHO cells (enhancement ratio); type: cell-based, Chinese hamster; conditions: for ER: Table 1; for radiosensitization, relative effectiveness: cis configuration, various concentrations, FIG. 2
Description: Radiosensitization of CHO cells was determined as described by Moore, B. A., et al, sucra, at 4° C., except that the cells were incubated with complex for 1 hr at 37° C. to allow binding to DNA prior to radiation. A Picker X-ray source (250 kVp, 1.7 mm Cu) was used. As with the toxicity studies, cells were carried, irradiated, and plated in MEM a medium with 10% fetal calf serum, and plating efficiencies were determined on the seventh day after plating. Enhancement ratios (ER) were calculated from the doses required to reduce survival to 1%.

[3] = system: cells; conditions: cited from earlier work
[4] = system: tumors; conditions: cited from earlier work
[5] = system: L1210 cells, cDDP sensitive line; assay: Toxicity in cisDDP-sensitive L1210 cells; type: cell-based; conditions: read-out: ID50 (the source's name)
From the text: (§1) Patients become resistant to cisplatin (cisDDP) and to many related drugs.

[6] = system: L1210 cells, cDDP resistant line; assay: Toxicity in cisDDP-resistant L1210 cells (cross-resistance); type: cell-based; conditions: for Ratio (ID50 cDDP resistant/cDDP sensitive): L1210 cells; for IC50: L1210, cDDP resistant line, read-out: ID50 (the source's name)
From the text: as §1

[7] = system: plasmid pSV2-gpt DNA; assay: Binding to DNA by inhibition of restriction enzyme (BamHI) cleavage of plasmid DNA; type: biochemical; design: inhibition of BamHI cleavage / inhibition of cleavage with BamHI: unit of the concentration uncertain; conditions: for binding to DNA as indicated by enzyme inhibition: 1 hr at 37° C.; for binding to DNA, relative: all concentrations, FIG. 8; for inhibition of cleavage with BamHI: FIG. 3
Description: The ability of the invention compounds to bind DNA was tested using an assay which is based on inhibition of the ability of restriction enzymes to cleave the complexed DNA. The substrate in the assay was the plasmid pSV2-gpt (Mulligan, R., et al Science (1980) 209:1422-1427). After growth in E. coli. this 5.2 kb plasmid was extracted and linearized using PvuII. Cleavage of the extracted linearized segment by BamHI or EcoRI results in two fragments per enzyme. Inhibition of this cleavage by test compounds provides an assay method for binding of the test compounds.
In the assay, DNA (20 mg/ml) in 100 mM Tris-HCl, 1 mM EDTA, pH 8, was treated with the test compounds at approximately 100 mM for 1 hr at 37° C. Unbound drug was then removed using a G-50 Sephadex spin column (Pharmacia).
To 30 mM of the treated DNA, 23.5 ml of a buffer solution containing 0.33 M Tris-acetate, pH 7.9, 0.66 M potassium acetate, 0.10 M dithiothreitol, and 1 mg/ml BSA, along with 10 units of enzyme, were added. Enzyme activity was stopped using 1 ml 0.5 M EDTA after 30 min at 37° C. Tracking 0.25% bromophenol blue, 0.25% xylene cyanol in 30% glycerol water) was added, and 10 ml of the resulting solution loaded onto a 1% agarose gel made with E buffer (0.04 M Tris, 5 mM sodium acetate; 1 mM EDTA, pH 7.8) and subjected to horizontal electrophoresis. The slab gel was stained with aqueous ethidium bromide solution (1 ng/ml) and photographed under UV light.
Inhibition of the restriction enzyme cleavage was assessed qualitatively by noting the relative proportion of bands, or quantitatively by analyzing densitometric scans of the negatives of the recorded pictures.

[8] = system: DNA of CHO cells; assay: Platinum bound to DNA extracted from whole CHO cells, atomic absorption; type: cell-based, Chinese hamster; design: dose or concentration left out as unconfirmed; conditions: 1-2 hr exposure
From the text: Though the results of this assay were erratic they establish that the Pt complexes cross cell membranes and bind to DNA in mammalian cells.

[9] = system: cancer; conditions: cited from earlier work
[10] = system: KHT sarcoma; assay: Potentiation of cytotoxicity in vivo by hydralazine, KHT sarcoma model
[11] = 100 mM/dm^3, cis configuration or ligand alone, dose to reduce survival to 1%
[12] = FIG. 7, cis-mono-4NI and cis-mono-5NI

SMILES: O=[N+]([O-])c1c[nH]cn1 [4-nitroimidazole]
- order of toxicity of free ligand [1]: 4-nitroimidazole f MISO f ANT f METRO
- enhancement ratio (ER) [2, 11]: 1.10

SMILES: O=[N+]([O-])c1ccc2ncccc2c1 [6NQ, 6-nitroquinoline]
- effect on plating efficiency ([1]; after 3 hours): no effect

SMILES: Nc1ncc([N+](=O)[O-])s1 [ANT, 2-amino-5-nitrothiazole]
- order of toxicity of free ligand [1]: 4-nitroimidazole f MISO f ANT f METRO
- enhancement ratio (ER) [2, 11]: 1.25

SMILES: Cc1ncc([N+](=O)[O-])n1CCO [METRO, 1,2-hydroxyethyl-2-methyl-5-nitroimidazole]
- order of toxicity of free ligand [1]: 4-nitroimidazole f MISO f ANT f METRO
- sensitizing cells to radiation treatment in clinical trials [3]: beneficial effects in sensitizing cells to radiation treatment

SMILES: COCC(O)Cn1ccnc1[N+](=O)[O-] (centres unmarked) [MISO]
- toxicity ([1]; 100 mM/dm^3): no toxicity
- order of toxicity of free ligand [1]: 4-nitroimidazole f MISO f ANT f METRO
- ER ([2]; 100 mmol/dm^3): 1.3
- ER ([2]; 250 mmol/dm^3): 1.4
- sensitization in oxygen [2]: no sensitization
- sensitizing cells to radiation treatment in clinical trials [3]: beneficial effects in sensitizing cells to radiation treatment

SMILES: O=[N+]([O-])c1nccn1CC(O)CN1CC1 (centres unmarked) [RSU-1069]
- side effects ([4]; chemotherapy): high incidence of side effects
- amount of RSU-1069 required for effectiveness with 5-hydroxytryptamine or hydralazine ([4]; coadministration of 5-hydroxytryptamine or hydralazine): can be reduced by administration of 5-hydroxytryptamine or hydralazine
- enhancement of effect of RSU-1069 by hydralazine ([4]; hydralazine 5 mg/kg or 30 mg/kg, RSU-1069 0.1 mg/g IP, within three hours): enhance the effect of RSU-1069

SMILES: O=C(Cn1ccnc1[N+](=O)[O-])NCCO [SR-2508]
- sensitizing cells to radiation treatment in clinical trials [3]: beneficial effects in sensitizing cells to radiation treatment

SMILES: Cc1n(CCO)c([N+](=O)[O-])c[n+]1[Pt-2]([NH3+])([Cl])[Cl] [cis mono METRO]
- IC50 [5]: 4.4 mM
- Ratio (ID50 cDDP resistant/cDDP sensitive) [6]: 5

SMILES: N.N.[Cl][Pt][Cl] [cis-DDP, cis[PtCl2 (NH3)2]]
- toxicity compared with the compounds of the invention [1]: somewhat more toxic than the compounds of the invention
- approximate order of hypoxic toxicity of platinum complexes [1]: cis-DDP ff trans-mono-MISO f monoammine Z cis-mono-MISO f trans-DDP f mono-METRO Z mono-NI f mono-ANT
- ER ([2]; 10 mmol/dm^3): 1.3
- inhibition of BamHI cleavage ([7]; 40 (unit uncertain)): 30%
- binding to DNA as indicated by enzyme inhibition [7]: binds much more strongly than the monoammine
- platinum bound to the extracted DNA [8]: 6 ng Pt/10^6 cells
- IC50 [5]: 0.1 mM
- IC50 [6]: 5 mM
- Ratio (ID50 cDDP resistant/cDDP sensitive) [6]: 50
- effectiveness in sensitive versus resistant cells ([6]; more effective in "sensitive" cells): 50 ×
- antineoplastic activity ([9]; literature, 1969): shown to have antineoplastic activity
- usefulness in treatment of cancer ([9]; testicular cancer versus other sites): useful in the treatment of testicular cancer, but less so in treatment of cancers at other sites

SMILES: COCC(O)Cn1cc[n+]([Pt-2]([NH3+])([Cl])[Cl])c1[N+](=O)[O-] (stereo not drawn) [cis-mono-MISO, PtCl2 (NH3) (misonidazole)]
- toxicity in hypoxia versus in air ([1]; 100 mM/dm^3, aerobic and hypoxic cells, FIG. 1): toxicity is greater in hypoxia than in air
- toxicity compared with MISO alone and cisDDP ([1]; complex 100 mM/dm^3, cis-DDP at 10 mM/dm^3): more toxic than MISO alone, although less toxic than cisDDP
- ER ([2]; 100 mmol/dm^3): 1.25
- sensitization in oxygen [2]: no sensitization
- IC50 ([5]; listed as cis mono MISO): 8.5 mM

SMILES: N.O=[N+]([O-])c1c[nH]cn1.[Cl][Pt][Cl] [mono-4NI, PtCl2 (ammine)(4-nitroimidazole)]
- approximate order of hypoxic toxicity of platinum complexes [1]: cis-DDP ff trans-mono-MISO f monoammine Z cis-mono-MISO f trans-DDP f mono-METRO Z mono-NI f mono-ANT
- enhancement ratio (ER) [2, 11]: 1.16
- enhancement ratio (ER) [2, 12]: 1.16
- radiosensitization, relative effectiveness [2]: somewhat more effective than mono-ANT
- binding to DNA, relative [7]: neither bound as well, however, as cis-DDP

SMILES: N.O=[N+]([O-])c1cnc[nH]1.[Cl][Pt][Cl] [mono-5NI, PtCl2 (ammine)(5-nitroimidazole)]
- enhancement ratio (ER) [2, 12]: 1.28
- binding to DNA, relative [7]: more effective binding to DNA at all concentrations than cis-mono-4NI; neither bound as well, however, as cis-DDP

SMILES: N.O=[N+]([O-])c1ccc2ncccc2c1.[Cl][Pt][Cl] [mono-6NQ, [PtCl2 (NH3)(6-nitroquinoline)]
- toxicity compared with 6NQ alone ([1]; FIG. 5): much higher toxicity than 6NQ alone
- plating efficiency ([1]; after an hour, 60 min): 0

SMILES: N.Nc1ncc([N+](=O)[O-])s1.[Cl][Pt][Cl] [mono-ANT, PtCl2 (ammine)(2-amino-5-nitrothiazole)]
- approximate order of hypoxic toxicity of platinum complexes [1]: cis-DDP ff trans-mono-MISO f monoammine Z cis-mono-MISO f trans-DDP f mono-METRO Z mono-NI f mono-ANT
- enhancement ratio (ER) [2, 11]: 1.15
- inhibition of cleavage with BamHI ([7]; 320 (unit uncertain)): At least 10%

SMILES: Cc1ncc([N+](=O)[O-])n1CCO.N.[Cl][Pt][Cl] [mono-METRO]
- approximate order of hypoxic toxicity of platinum complexes [1]: cis-DDP ff trans-mono-MISO f monoammine Z cis-mono-MISO f trans-DDP f mono-METRO Z mono-NI f mono-ANT
- radiosensitization, relative effectiveness [2]: approximately equal to mono-ANT
- inhibition of cleavage with BamHI ([7]; approximately 50 mM): At least 10%

SMILES: COCC(O)Cn1cc[n+]([Pt-2]([NH3+])([Cl])[Cl])c1[N+](=O)[O-] (centres unmarked) [mono-MISO, PtCl2 (NH3) (misonidazole)]
- radiosensitization, relative effectiveness [2]: somewhat more effective than mono-NI
- inhibition of cleavage with BamHI ([7]; approximately 50 mM): At least 10%
- potentiation by hydralazine ([10]; hydralazine 5 mg/kg, FIG. 4): potentiating effects of hydralazine on this compound
- dose reduction to achieve equitoxic doses when hydralazine is coadministered ([10]; with hydralazine): 4 ×
- drop in cell survival with combined therapy ([10]; with hydralazine, mono-MISO 10 to 300 mg/kg, FIG. 4): approx. 3 logs

SMILES: N.[Cl][Pt-]([Cl])[Cl].[K+] [monoammine, K[PtCl3 (NH3)]]
- Survival rate ([1]; 100 mM/dm^3): 0.1
- toxicity compared with the compounds of the invention [1]: somewhat more toxic than the compounds of the invention
- approximate order of hypoxic toxicity of platinum complexes [1]: cis-DDP ff trans-mono-MISO f monoammine Z cis-mono-MISO f trans-DDP f mono-METRO Z mono-NI f mono-ANT
- ER ([2]; 100 mmol/dm^3): 1.2
- inhibition of BamHI cleavage ([7]; 160 mM (level not reached until this concentration)): 30%
- binding to DNA as indicated by enzyme inhibition [7]: showed binding to the DNA as indicated by enzyme inhibition

SMILES: N.N.[Cl][Pt+2][Cl] [trans-DDP, transdichlorodiamine platinum II]
- Survival rate ([1]; 100 mM/dm^3): 0.2
- toxicity compared with the compounds of the invention [1]: somewhat less toxic
- approximate order of hypoxic toxicity of platinum complexes [1]: cis-DDP ff trans-mono-MISO f monoammine Z cis-mono-MISO f trans-DDP f mono-METRO Z mono-NI f mono-ANT
- ER ([2]; 100 mmol/dm^3): 1.3
- platinum bound to the extracted DNA [8]: 5 ng Pt/10^6 cells
- IC50 [5]: 22 mM
- IC50 [6]: 66 mM
- Ratio (ID50 cDDP resistant/cDDP sensitive) [6]: 3

SMILES: COCC(O)Cn1cc[n+]([Pt-2]([Cl])([Cl])[n+]2ccn(CC(O)COC)c2[N+](=O)[O-])c1[N+](=O)[O-] (stereo not drawn) [trans-bis-MISO, trans-[PtCl2 (miso)2]]
- toxicity ([1]; 100 mM/dm^3): no toxicity
- toxicity compared with the compounds of the invention [1]: somewhat less toxic
- ER ([2]; 100 mmol/dm^3): 1.2
- sensitization in oxygen [2]: no sensitization
